The source of these data is patent US7741341B2, “Benzimidazole-derivatives as factor Xa inhibitors” (sanofi-aventis Deutschland GmbH, priority 2003, dated 2010).

Structures are written as SMILES. pKi: −log10 of the molar value.

T1 sequence (P00742 235-488 limits assumed): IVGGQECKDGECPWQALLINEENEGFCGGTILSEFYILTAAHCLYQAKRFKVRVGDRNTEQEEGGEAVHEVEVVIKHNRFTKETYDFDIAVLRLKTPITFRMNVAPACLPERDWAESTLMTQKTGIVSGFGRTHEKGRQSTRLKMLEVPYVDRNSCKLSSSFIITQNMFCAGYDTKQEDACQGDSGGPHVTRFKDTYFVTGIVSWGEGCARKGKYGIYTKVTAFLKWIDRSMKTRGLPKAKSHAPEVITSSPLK
T1 sequence (P00742 41-179 partner limits assumed): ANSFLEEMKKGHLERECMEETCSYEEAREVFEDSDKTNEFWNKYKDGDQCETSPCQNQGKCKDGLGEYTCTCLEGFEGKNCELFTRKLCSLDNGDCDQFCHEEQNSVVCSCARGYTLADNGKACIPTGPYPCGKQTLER

This experiment concerns the target T1, human factor Xa (Homo sapiens, UniProt P00742).
T1 construct: human factor Xa (Enzyme Research Laboratories, Inc; South Bend, Ind.); purchased Enzyme Research Laboratories, Inc; South Bend, Ind
Briefly: Factor Xa assay (chromogenic, substrate S-2765). In kind it is biochemical. Conditions: read-out: Ki(FXa). The protocol:
Purified enzymes were used in chromogenic assays.
The IC50 was determined by combining in appropriate wells of a Costar half-area microtiter plate 25 μl human factor Xa (Enzyme Research Laboratories, Inc.; South Bend, Ind.) in TBS-PEG; 40 μl 10% (v/v) DMSO in TBS-PEG (uninhibited control) or various concentrations of the compound to be tested diluted in 10% (v/v) DMSO in TBS-PEG; and substrate S-2765 (N(α)-benzyloxycarbonyl-D-Arg-Gly-L-Arg-p-nitroanilide; Kabi Pharmacia, Inc.; Franklin, Ohio) in TBS-PEG.
The assay was performed by pre-incubating the compound of formula I plus enzyme for 10 min. Then the assay was initiated by adding substrate to obtain a final volume of 100 μl. […] The enzyme concentration was 0.5 nM and substrate concentration was 140 μM.
Regarding `CC(C)N1CCC(NC(=O)c2nc3c(C(=O)N4CCCOCC4)scc3n2CC(=O)Nc2ccc(Cl)cn2)CC1` [Example 104, 3-[(5-Chloro-pyridin-2-ylcarbamoyl)-methyl]-6-([1,4]oxazepane-4-carbonyl)-3H-thieno[3,4-d]imidazole-2-carboxylic acid (1-isopropyl-piperidin-4-yl)-amide], the pKi is 7.70.
For the compound `CC(C)N1CCC(NC(=O)c2nc3c(C(=O)N(C)CCO)cccc3n2Cc2cc(-c3ccc(Cl)s3)on2)CC1` [Example 24, 1-[5-(5-Chloro-thiophen-2-yl)-isoxazol-3-ylmethyl]-1H-benzoimidazole-2,4-dicarboxylic acid 4-[(2-hydroxy-ethyl)-methyl-amide] 2-[(1-isopropyl-piperidin-4-yl)-amide]], the pKi is 7.59.
Regarding `CC(C)N1CCC(NC(=O)c2nc3cc(C(=O)N4CC(O)C4)ccc3n2CC(=O)Nc2ccc(Cl)cn2)CC1` [Example 54, 1-[(5-Chloro-pyridin-2-ylcarbamoyl)-methyl]-5-(3-hydroxy-azetidine-1-carbonyl)-1H-benzoimidazole-2-carboxylic acid (1-isopropyl-piperidin-4-yl)-amide], the negative logarithm of the Ki (pKi) was 7.51.
For the compound `CC(C)N1CCC(NC(=O)c2nc3ccccc3n2CC(=O)Nc2ccc(Cl)cn2)CC1` [Example 3, 1-[(5-Chloro-pyridin-2-ylcarbamoyl)-methyl]-1H-benzoimidazole-2-carboxylic acid (1-isopropyl-piperidin-4-yl)-amide], the pKi was 8.85.
In the case of `COC1CN(C(=O)c2cccc3c2nc(C(=O)NC2CCN(C(C)C)CC2)n3Cc2cc(-c3ccc(Cl)s3)on2)C1` [Example 80, 1-[5-(5-Chloro-thiophen-2-yl)-isoxazol-3-ylmethyl]-4-(3-methoxy-azetidine-1-carbonyl)-1H-benzoimidazole-2-carboxylic acid (1-isopropyl-piperidin-4-yl)-amide], the negative logarithm of the Ki (pKi) was 8.15.
With `CC(C)N1CCC(NC(=O)c2nc3ccc(C(=O)NCCO)cc3n2CC(=O)Nc2ccc(Cl)cn2)CC1` [Example 57, 3-[(5-Chloro-pyridin-2-ylcarbamoyl)-methyl]-3H-benzoimidazole-2,5-dicarboxylic acid 5-[(2-hydroxy-ethyl)-amide]2-[(1-isopropyl-piperidin-4-yl)-amide]], the pKi was 6.23.
For the compound `CC(C)N1CCC(NC(=O)c2nc3cc(C(=O)N(C)CCO)ccc3n2Cc2cc(-c3ccc(Cl)s3)on2)CC1` [Example 25, 1-[5-(5-Chloro-thiophen-2-yl)-isoxazol-3-ylmethyl]-1H-benzoimidazole-2,5-dicarboxylic acid 5-[(2-hydroxy-ethyl)-methyl-amide] 2-[(1-isopropyl-piperidin-4-yl)-amide]], the negative logarithm of the Ki (pKi) is 7.19.
As for `CC(C)N1CCC(NC(=O)c2nc3c(C(=O)OCC(=O)O)cccc3n2Cc2cc(-c3ccc(Cl)s3)on2)CC1` [Example 66, 1-[5-(5-Chloro-thiophen-2-yl)-isoxazol-3-ylmethyl]-2-(1-isopropyl-piperidin-4-ylcarbamoyl)-1H-benzoimidazole-4-carboxylic acid carboxymethyl ester], the negative-log Ki (pKi) is 8.52.
Turning to `COCCOc1cccc2c1nc(C(=O)NC1CCN(C(C)C)CC1)n2CC(=O)Nc1ccc(Cl)cn1` [Example 108, 1-[(5-Chloro-pyridin-2-ylcarbamoyl)-methyl]-4-(2-methoxy-ethoxy)-1H-benzoimidazole-2-carboxylic acid (1-isopropyl-piperidin-4-yl)-amide], the pKi is 8.19.
On to `O=C(Nc1ccc(-n2ccc(=O)[nH]c2=O)cc1)c1nc2ccccc2n1Cc1cc(-c2ccc(Cl)s2)on1` [Example 41, 1-[5-(5-Chloro-thiophen-2-yl)-isoxazol-3-ylmethyl]-1H-benzoimidazole-2-carboxylic acid [4-(2,4-dioxo-3,4-dihydro-2H-pyrimidin-1-yl)-phenyl]-amide], for which the pKi was 8.22.
Consider `O=C(Nc1ccc(N2CCOC2=O)cc1)c1nc2ccccc2n1Cc1cc(-c2ccc(Cl)s2)on1` [Example 42, 1-[5-(5-Chloro-thiophen-2-yl)-isoxazol-3-ylmethyl]-1H-benzoimidazole-2-carboxylic acid [4-(2-oxo-oxazolidin-3-yl)-phenyl]-amide], for which the pKi was 6.34.
For the compound `CCOC(=O)OC(C)OC(=O)c1cccc2c1nc(C(=O)NC1CCN(C(C)C)CC1)n2Cc1cc(-c2ccc(Cl)s2)on1` (stereo not shown) [Example 20, 1-[5-(5-Chloro-thiophen-2-yl)-isoxazol-3-ylmethyl]-2-(1-isopropyl-piperidin-4-ylcarbamoyl)-1H-benzoimidazole-4-carboxylic acid 1-ethoxycarbonyloxy-ethyl ester], the pKi is 8.07.
Turning to `CC(C)N1CCC(NC(=O)c2nc3cc(C(=O)O)ccc3n2Cc2cc(-c3ccc(Cl)s3)on2)CC1` [Example 6, 1-[5-(5-Chloro-thiophen-2-yl)-isoxazol-3-ylmethyl]-2-(1-isopropyl-piperidin-4-ylcarbamoyl)-1H-benzoimidazole-5-carboxylic acid], the negative-log Ki (pKi) was 8.52.
Under `CC(C)N1CCC(NC(=O)c2nc3c(C(=O)N4CCC(O)CC4)cccc3n2Cc2cc(-c3ccc(Cl)s3)on2)CC1` [Example 91, 1-[5-(5-Chloro-thiophen-2-yl)-isoxazol-3-ylmethyl]-4-(4-hydroxy-piperidine-1-carbonyl)-1H-benzoimidazole-2-carboxylic acid (1-isopropyl-piperidin-4-yl)-amide] stands 7.68; under `CC(C)N1CCC(NC(=O)c2nc3cc(C(=O)N4CCCOCC4)ccc3n2CC(=O)Nc2ccc(Cl)cn2)CC1` [Example 77, 1-[(5-Chloro-pyridin-2-ylcarbamoyl)-methyl]-5-([1,4]oxazepane-4-carbonyl)-1H-benzoimidazole-2-carboxylic acid (1-isopropyl-piperidin-4-yl)-amide], 7.28.
As to `CC(C)N1CCC(NC(=O)c2nc3ccc(S(=O)(=O)CCO)cc3n2Cc2cc(-c3ccc(Cl)s3)on2)CC1` [Example 29b, 1-[5-(5-Chloro-thiophen-2-yl)-isoxazol-3-ylmethyl]-6-(2-hydroxy-ethanesulfonyl)-1H-benzoimidazole-2-carboxylic acid (1-isopropyl-piperidin-4-yl)-amide], the pKi was 7.94.
`CC(C)N1CCC(NC(=O)c2nc3c(C(=O)NCCO)cccc3n2CC(=O)Nc2ccc(Cl)cn2)CC1` [Example 30, 1-[(5-Chloro-pyridin-2-ylcarbamoyl)-methyl]-1H-benzoimidazole-2,4-dicarboxylic acid 4-[(2-hydroxy-ethyl)-amide] 2-[(1-isopropyl-piperidin-4-yl)-amide]]: the negative-log Ki (pKi) is 8.05.
Take `O=C(Cn1c(C(=O)Nc2ccc(-n3ccc(=O)[nH]c3=O)cc2)nc2ccccc21)Nc1ccc(Cl)cn1` [Example 44, 1-[(5-Chloro-pyridin-2-ylcarbamoyl)-methyl]-1H-benzoimidazole-2-carboxylic acid [4-(2,4-dioxo-3,4-dihydro-2H-pyrimidin-1-yl)-phenyl]-amide]: the pKi is 7.55.
As for `O=C(NC1CCN(c2ccncn2)CC1)c1nc2ccccc2n1Cc1cc(-c2ccc(Cl)s2)on1` [Example 4, 1-[5-(5-Chloro-thiophen-2-yl)-isoxazol-3-ylmethyl]-1H-benzoimidazole-2-carboxylic acid (1-pyrimidin-4-yl-piperidin-4-yl)-amide], the negative logarithm of the Ki (pKi) was 7.23.
As for `COC(=O)c1sc(OCC(F)(F)F)c2nc(C(=O)NC3CCN(C(C)C)CC3)n(Cc3cc(-c4ccc(Cl)s4)on3)c12` [Example 105, 3-[5-(5-Chloro-thiophen-2-yl)-isoxazol-3-ylmethyl]-2-(1-isopropyl-piperidin-4-ylcarbamoyl)-6-(2,2,2-trifluoro-ethoxy)-3H-thieno[3,4-d]imidazole-4-carboxylic acid methyl ester], the pKi is 4.26.
For `CC(C)N1CCC(NC(=O)c2nc3cc(C(=O)OCC(=O)O)ccc3n2Cc2cc(-c3ccc(Cl)s3)on2)CC1` [Example 79, 1-[5-(5-Chloro-thiophen-2-yl)-isoxazol-3-ylmethyl]-2-(1-isopropyl-piperidin-4-ylcarbamoyl)-1H-benzoimidazole-5-carboxylic acid carboxymethyl ester], the pKi is 9.00.
The same measure for `CC(C)N1CCC(NC(=O)c2nc3c(C(=O)N4CCC(F)(F)CC4)cccc3n2CC(=O)Nc2ccc(Cl)cn2)CC1` [Example 76, 1-[(5-Chloro-pyridin-2-ylcarbamoyl)-methyl]-4-(4,4-difluoro-piperidine-1-carbonyl)-1H-benzoimidazole-2-carboxylic acid (1-isopropyl-piperidin-4-yl)-amide]: 8.07.
As to `CC(C)N1CCC(NC(=O)c2nc3ccc(C(=O)O)cc3n2CC(=O)Nc2ccc(Cl)cn2)CC1` [Example 19, 3-[(5-Chloro-pyridin-2-ylcarbamoyl)-methyl]-2-(1-isopropyl-piperidin-4-ylcarbamoyl)-3H-benzoimidazole-5-carboxylic acid], the pKi was 7.63.
The same measure for `CC(C)N1CCC(NC(=O)c2nc3cc(C(=O)O)ccc3n2CC(=O)Nc2ccc(Cl)cn2)CC1` [Example 18, 1-[(5-Chloro-pyridin-2-ylcarbamoyl)-methyl]-2-(1-isopropyl-piperidin-4-ylcarbamoyl)-1H-benzoimidazole-5-carboxylic acid]: 7.65.
Regarding `CC(C)N1CCC(NC(=O)c2nc3c(C(=O)N4CC(O)C4)cccc3n2CC(=O)Nc2ccc(Cl)cn2)CC1` [Example 32, 1-[(5-Chloro-pyridin-2-ylcarbamoyl)-methyl]-4-(3-hydroxy-azetidine-1-carbonyl)-1H-benzoimidazole-2-carboxylic acid (1-isopropyl-piperidin-4-yl)-amide], the pKi is 7.98.

For orientation: pKi means the Ki on a negative log10 scale, so that one unit is a factor of ten.
